Source: patent publication US20210347794A1, “Phosphate Derivatives of Indole Compounds and Their Use” (ARIAGEN, INC., priority 2018, published 2021)

Key:
[1] = In vivo pharmacokinetic study in dogs, oral dose of ARI-158; set-up: species or system male beagle dogs; conditions: for Plasma Concentration / AUC(0-inf) / AUC(0-t) / Cmax / Tmax / half-life / concentration at 0.083 h / concentration at 0.25 h / concentration at 0.5 h / concentration at 1 h / concentration at 2 h / concentration at 4 h / concentration at 6 h / concentration at 8 h: dogs, 10 mg/kg oral dose of ARI-158; for AUC(0-inf) / AUC(0-t) / Cmax / Tmax / half-life / concentration at 0.083 h / concentration at 0.25 h / concentration at 0.5 h / concentration at 1 h / concentration at 2 h / concentration at 4 h / concentration at 6 h / concentration at 8 h: male, beagle, dog, plasma, po, 10 mg/kg
Procedure: This example describes pharmacokinetic (PK) studies of ARI-158 and ARI-160 in dogs and rats, respectively. In the present studies, the test compounds were given to groups of male beagle dogs and rats (N=3 in each group) intravenously (IV) at 2 mg/kg or orally (PO) at 10 mg/kg. IV doses were formulated in DMSO, while PO doses were formulated in a 50/50 mixture of PEG400 and Tween 80. Blood samples were collected at pre-dose and over a period of 24 hours post-dose. Plasma concentrations of the indolo-phosphoramidate compounds were determined by HPLC.

EMT-6 cancer cells = experiment: Anti-tumor activity in EMT-6 syngeneic mouse tumor model; assay type: in vivo; conditions: 80 mpk
Procedure: This example describes in vivo studies that evaluated the anti-cancer efficacy of ARI-158 and ARI-160 in syngeneic mouse tumor models. Mice implanted subcutaneously with EMT-6 cancer cells were treated with ARI-158 and ARI-160, or vehicle controls, as described below.
A monolayer culture of tumor cells was maintained in vitro in DMEM or RPMI1640 medium supplemented with 10% fetal bovine serum at 37° C. in an atmosphere of 5% CO2. Cells in exponential growth phase were harvested and quantitated by cell counter before tumor inoculation.
EMT-6 syngeneic mouse tumor models were generated by inoculating female BALB/C 6 mice with EMT-6 cancer cells at their right lower flank.
Each mouse was inoculated subcutaneously with tumor cells in 0.1 mL of PBS. Treatments were started when the mean tumor size reached approximately 80-120 mm^3 (around 100 mm^3). The administration of the test compounds and the animal number in each study group are shown in the study design. The date of tumor cell inoculation was denoted as day 0.
ARI-158 and ARI-160 were dissolved in DMSO at the final concentration of 26.7 mg/ml and stored at room temperature.
Randomization of animals was started when the mean tumor size reached approximately 90 mm^3 to form the mouse study groups. The randomization was performed based on “Matched distribution” method using the multi-task method (StudyDirector™ software, version 3.1.399.19)/randomized block design. […]
Tumor volumes were measured twice per week in two dimensions using a caliper, and the volume was expressed in mm^3 using the formula: […]
where V is tumor volume, L is tumor length (the longest tumor dimension) and W is tumor width (the longest tumor dimension perpendicular to L). Dosing as well as tumor and body weight measurements was conducted in a Laminar Flow Cabinet. The body weights and tumor volumes were measured by using StudyDirector™ software (version 3.1.399.19).
Tumor growth inhibition percentage (TGI %) is an indicator for antitumor activity of a drug compound, and expressed as: […]
where T and C are the mean tumor volume (or weight) of the treated and control groups, respectively, on a given day. Statistical analysis of the difference in mean tumor volume (MTV) among the groups was conducted using the data collected on the day when the MTV of the vehicle group reached the humane endpoints, so that TGI could be derived for all or most mice enrolled in the study.

Plasma Concentration ([1]; time 0 h, Dog 10): BLQ | Plasma Concentration ([1]; time 0 h, Dog 11): BLQ | Plasma Concentration ([1]; time 0 h, Dog 12): BLQ | Plasma Concentration ([1]; time 8 h, Dog 11): BLQ | Plasma Concentration ([1]; time 24 h, Dog 10): BLQ | Plasma Concentration ([1]; time 24 h, Dog 11): BLQ | Plasma Concentration ([1]; time 24 h, Dog 12): BLQ | AUC(0-inf) ([1]; Dog 10): 1020 ng·h/mL | AUC(0-t) ([1]; Dog 10): 1020 ng·h/mL | Cmax ([1]; Dog 10): 786 ng/mL | Tmax ([1]; Dog 10): 30 min | half-life ([1]; Dog 10): 82.2 min | AUC(0-inf) ([1]; Dog 11): 677 ng·h/mL | AUC(0-t) ([1]; Dog 11): 675 ng·h/mL | Cmax ([1]; Dog 11): 561 ng/mL | Tmax ([1]; Dog 11): 30 min | half-life ([1]; Dog 11): 39.2 min | AUC(0-inf) ([1]; Dog 12): 676 ng·h/mL | AUC(0-t) ([1]; Dog 12): 669 ng·h/mL | Cmax ([1]; Dog 12): 275 ng/mL | Tmax ([1]; Dog 12): 60 min | half-life ([1]; Dog 12): 61.2 min | AUC(0-inf) ([1]; Mean): 791 ng·h/mL | AUC(0-t) ([1]; Mean): 787 ng·h/mL | Cmax ([1]; Mean): 541 ng/mL | Tmax ([1]; Mean): 40 min | half-life ([1]; Mean): 60.6 min | concentration at 0.083 h ([1]; Dog 10): 153 ng/mL | concentration at 0.083 h ([1]; Dog 11): 149 ng/mL | concentration at 0.083 h ([1]; Dog 12): 14.3 ng/mL | concentration at 0.083 h ([1]; Mean): 105 ng/mL | concentration at 0.25 h ([1]; Dog 10): 438 ng/mL | concentration at 0.25 h ([1]; Dog 11): 414 ng/mL | concentration at 0.25 h ([1]; Dog 12): 87.3 ng/mL | concentration at 0.25 h ([1]; Mean): 313 ng/mL | concentration at 0.5 h ([1]; Dog 10): 786 ng/mL | concentration at 0.5 h ([1]; Dog 11): 561 ng/mL | concentration at 0.5 h ([1]; Dog 12): 178 ng/mL | concentration at 0.5 h ([1]; Mean): 508 ng/mL | concentration at 1 h ([1]; Dog 10): 677 ng/mL | concentration at 1 h ([1]; Dog 11): 311 ng/mL | concentration at 1 h ([1]; Dog 12): 275 ng/mL | concentration at 1 h ([1]; Mean): 421 ng/mL | concentration at 2 h ([1]; Dog 10): 128 ng/mL | concentration at 2 h ([1]; Dog 11): 102 ng/mL | concentration at 2 h ([1]; Dog 12): 158 ng/mL | concentration at 2 h ([1]; Mean): 129 ng/mL | concentration at 4 h ([1]; Dog 10): 11.2 ng/mL | concentration at 4 h ([1]; Dog 11): 14.4 ng/mL | concentration at 4 h ([1]; Dog 12): 69.8 ng/mL | concentration at 4 h ([1]; Mean): 31.8 ng/mL | concentration at 6 h ([1]; Dog 10): 3.28 ng/mL | concentration at 6 h ([1]; Dog 11): 1.47 ng/mL | concentration at 6 h ([1]; Dog 12): 14.1 ng/mL | concentration at 6 h ([1]; Mean): 6.28 ng/mL | concentration at 8 h ([1]; time 8 h, Dog 10): 1.47 ng/mL | concentration at 8 h ([1]; time 8 h, Dog 12): 4.62 ng/mL | concentration at 8 h ([1]; time 8 h, Mean): 3.05 ng/mL
SMILES: CCC(=O)c1csc(C(=O)c2cn(P(=O)([O-])[O-])c3cc(F)ccc23)n1.[Na+].[Na+] [ARI-158]
absorption ([1]; oral administration in dogs, compared with ARI-143): absorbed much more efficiently than ARI-143 | anti-tumor efficacy (TGI) comparison (EMT-6 cancer cells): better efficacy than ARI-160 | TGI (EMT-6 cancer cells; study day 6): −0.01% | TGI (EMT-6 cancer cells; study day 10): 2.92% | TGI (EMT-6 cancer cells; study day 13): −1.75% | TGI (EMT-6 cancer cells; study day 17): 17.21% | TGI (EMT-6 cancer cells; study day 20): 38.27% | TGI (EMT-6 cancer cells; study day 24): 44.41% | TGI (EMT-6 cancer cells; study day 27): 42.16% | TGI (EMT-6 cancer cells; study day 31): 39.97%
